This is an account of results in patent publication US20070149525A1, “Methods of treating amyloidosis using aryl-cyclopropyl derivative aspartyl protease inhibitors” (priority 2005, published 2007).

One data set is described as follows: In vitro permeability across MDCK cell monolayer. Format: in vitro ADME, Canine. Particulars: dog, MDCK, test compound 5 μM, 2 h at 37° C., apical to basolateral, read-out: Permeability Forward A > B. On the procedure:
Compounds were evaluated for permeability across a monolayer of Madin-Darby Canine Kidney (MDCK) cells in a transwell device following culturing for 4 days. […] A 0.5 mL of cell suspension (400,000 cells/mL) was placed on membrane and a 1.5 mL media in the bottom wells on day 1. On day 2 and day 3, cells were fed with new media. […] Media was removed from upper chambers and filled with mHBSS with or without CspA, and incubated 30 min at 37° C. with light shaking. Donor chambers were emptied, and filled with test compound at 5 μM in mHBSS. […] Plates were incubated for 2 h at 37° C. with shaking. After 2 h, both the donor and receiver wells were sampled. The bottom chambers were read in a fluorometer to assess LY leakage, and then the media from all wells were assayed by LC/MS/MS to determine compound levels.
Take `CC(=O)NC(Cc1cc(F)cc(F)c1)C(O)CNC1(n2cccn2)CC1Cc1ccccc1` (single isomer, unassigned) [23.30 Diastereomer A, N-(4-(2-benzyl-1-(1H-pyrazol-1-yl)cyclopropylamino)-1-(3,5-difluorophenyl)-3-hydroxybutan-2-yl)acetamide]: the Papp A→B at 2 h, 5 μM turned out to be 8.48 ×10⁻⁶ cm/s.
Turning to `CC(=O)NC(Cc1cc(F)cc(F)c1)C(O)CNC1(n2cccn2)C2CCCC21` (stereo not shown) [Example 23.14, N-(4-(6-(1H-pyrazol-1-yl)bicyclo[3.1.0]hexan-6-ylamino)-1-(3,5-difluorophenyl)-3-hydroxybutan-2-yl)acetamide], the Papp A→B at 2 h, 5 μM was 20.4 ×10⁻⁶ cm/s.
The same measure, in the same setting: in the case of `CC(=O)NC(Cc1cc(F)cc(F)c1)C(O)CNC1(c2cc(-n3cccn3)cs2)CC1` (stereo not shown) [Example 23.15, N-(4-(1-(4-(1H-pyrazol-1-yl)thiophen-2-yl)cyclopropylamino)-1-(3,5-difluorophenyl)-3-hydroxybutan-2-yl)acetamide] it was 12.1 ×10⁻⁶ cm/s; in that of `CC(=O)NC(Cc1cc(F)cc(F)c1)C(O)CNC1(c2cncc(CC(C)(C)C)c2)CC1` (stereo not shown) [Example 23.16, N-(1-(3,5-difluorophenyl)-3-hydroxy-4-(1-(5-neopentylpyridin-3-yl)cyclopropylamino)butan-2-yl)acetamide], 13.5 ×10⁻⁶ cm/s; in that of `CC(=O)NC(Cc1cc(F)cc(F)c1)C(O)CNC1(c2cn(-c3ccsc3)nn2)CC1` (stereo not shown) [Example 23.20, N-(1-(3,5-difluorophenyl)-3-hydroxy-4-(1-(1-(thiophen-3-yl)-1H-1,2,3-triazol-4-yl)cyclopropylamino)butan-2-yl)acetamide], 12.1 ×10⁻⁶ cm/s.
For the compound `CC(=O)NC(Cc1cc(F)cc(F)c1)C(O)CNC1(c2csc(C(C)(C)C)c2)CC1` (stereo not shown) [Example 23.21, N-(4-(1-(5-tert-butylthiophen-3-yl)cyclopropylamino)-1-(3,5-difluorophenyl)-3-hydroxybutan-2-yl)acetamide], the Papp A→B at 2 h, 5 μM was found to be 10 ×10⁻⁶ cm/s.
Turning to `CC(=O)NC(Cc1cc(F)cc(F)c1)C(O)CNC1(c2cccc(-n3cccn3)c2)CC1C` (stereo not shown) [Example 23.23, N-(4-(1-(3-(1H-pyrazol-1-yl)phenyl)-2-methylcyclopropylamino)-1-(3,5-difluorophenyl)-3-hydroxybutan-2-yl)acetamide], the Papp A→B at 2 h, 5 μM was determined as 11.1 ×10⁻⁶ cm/s.
Still for that read-out and setting: the value for `CC(=O)NC(Cc1cc(F)cc(F)c1)C(O)CNC1(c2cccc(C3CCOC3)c2)CC1` (stereo not shown) [Example 23.24, N-(1-(3,5-difluorophenyl)-3-hydroxy-4-(1-(3-(tetrahydrofuran-3-yl)phenyl)cyclopropylamino)butan-2-yl)acetamide] was 13.2 ×10⁻⁶ cm/s.
`C=C(c1cccc(C2(NCC(O)C(Cc3cc(F)cc(F)c3)NC(C)=O)CC2)c1)C(F)(F)F` (stereo not shown) [Example 23.26, N-(1-(3,5-difluorophenyl)-3-hydroxy-4-(1-(3-(3,3,3-trifluoroprop-1-en-2-yl)phenyl)cyclopropylamino)butan-2-yl)acetamide]: the Papp A→B at 2 h, 5 μM was found to be 10.3 ×10⁻⁶ cm/s.
The same measure, in the same setting: in the case of `CC(=O)NC(Cc1cc(F)cc(F)c1)C(O)CNC1(c2cncc(-n3cccn3)c2)CC1` (stereo not shown) [Example 23.29, N-(4-(1-(5-(1H-pyrazol-1-yl)pyridin-3-yl)cyclopropylamino)-1-(3,5-difluorophenyl)-3-hydroxybutan-2-yl)acetamide] it was 8.62 ×10⁻⁶ cm/s.
For the compound `CC(=O)NC(Cc1cc(F)cc(F)c1)C(O)CNC1(c2cccc(C3CC=CCO3)c2)CC1` (stereo not shown) [Example 23.31, N-(1-(3,5-difluorophenyl)-4-(1-(3-(3,6-dihydro-2H-pyran-2-yl)phenyl)cyclopropylamino)-3-hydroxybutan-2-yl)acetamide], the Papp A→B at 2 h, 5 μM was found to be 10.7 ×10⁻⁶ cm/s.
The same measure, in the same setting: in the case of `CC(=O)NC(Cc1cc(F)cc(F)c1)C(O)CNC1(c2cccc(N3CCOCC3)c2)CC1` (stereo not shown) [Example 23.32, N-(1-(3,5-difluorophenyl)-3-hydroxy-4-(1-(3-morpholinophenyl)cyclopropylamino)butan-2-yl)acetamide] it was 12.1 ×10⁻⁶ cm/s; in that of `CC(=O)NC(Cc1cc(F)cc(F)c1)C(O)CNC1(c2cccc(C3CCOCOC3)c2)CC1` (stereo not shown) [Example 23.34, N-(4-(1-(3-(1,3-dioxepan-5-yl)phenyl)cyclopropylamino)-1-(3,5-difluorophenyl)-3-hydroxybutan-2-yl)acetamide], 12.1 ×10⁻⁶ cm/s.
Regarding `CC(=O)NC(Cc1cc(F)cc(F)c1)C(O)CNC1(c2c(F)ccc(-n3cccn3)c2F)CC1` (stereo not shown) [Example 23.35, N-(4-(1-(2,6-difluoro-3-(1H-pyrazol-1-yl)phenyl)cyclopropylamino)-1-(3,5-difluorophenyl)-3-hydroxybutan-2-yl)acetamide], the Papp A→B at 2 h, 5 μM is 19.4 ×10⁻⁶ cm/s.
With `CC(=O)NC(Cc1cc(F)cc(F)c1)C(O)CNC1(c2cnn(C(C)(C)C)c2)CC1` (stereo not shown) [Example 23.37, N-(4-(1-(1-tert-butyl-1H-pyrazol-4-yl)cyclopropylamino)-1-(3,5-difluorophenyl)-3-hydroxybutan-2-yl)acetamide], the Papp A→B at 2 h, 5 μM turned out to be 7.11 ×10⁻⁶ cm/s.
For `O=C(Cc1ccccc1)NC(Cc1cc(F)cc(F)c1)C(O)CNC1(c2cccc(-n3cccn3)c2)CC1` (stereo not shown) [Example 23.38, N-(4-(1-(3-(1H-pyrazol-1-yl)phenyl)cyclopropylamino)-1-(3,5-difluorophenyl)-3-hydroxybutan-2-yl)-2-phenylacetamide], the Papp A→B at 2 h, 5 μM came to 22.1 ×10⁻⁶ cm/s.
As to `COCC(=O)NC(Cc1cc(F)cc(F)c1)C(O)CNC1(c2cccc(-n3cccn3)c2)CC1` (stereo not shown) [Example 23.40, N-(4-(1-(3-(1H-pyrazol-1-yl)phenyl)cyclopropylamino)-1-(3,5-difluorophenyl)-3-hydroxybutan-2-yl)-2-methoxyacetamide], the Papp A→B at 2 h, 5 μM amounted to 12.9 ×10⁻⁶ cm/s.
As to `CCOCC(=O)NC(Cc1cc(F)cc(F)c1)C(O)CNC1(c2cccc(-n3cccn3)c2)CC1` (stereo not shown) [Example 23.41, N-(4-(1-(3-(1H-pyrazol-1-yl)phenyl)cyclopropylamino)-1-(3,5-difluorophenyl)-3-hydroxybutan-2-yl)-2-ethoxyacetamide], the Papp A→B at 2 h, 5 μM is 9.86 ×10⁻⁶ cm/s.
Same read-out and setting: the value for `COCCOCC(=O)NC(Cc1cc(F)cc(F)c1)C(O)CNC1(c2cccc(-n3cccn3)c2)CC1` (stereo not shown) [Example 23.44, N-(4-(1-(3-(1H-pyrazol-1-yl)phenyl)cyclopropylamino)-1-(3,5-difluorophenyl)-3-hydroxybutan-2-yl)-2-(2-methoxyethoxy)acetamide] was 13.3 ×10⁻⁶ cm/s.

The same data set, now with this note: dog, test compound 5 μM, 2 h at 37° C., apical to basolateral, read-out: Permeability Forward A > B.
For the compound `CC(C)(C)Cc1cc(C2(NCC(O)C(Cc3cc(F)cc(F)c3)NC(=O)CF)CC2)on1` (stereo not shown) [Example 23.10, N-(4-(1-(3-neopentylisoxazol-5-yl)cyclopropylamino)-1-(3,5-difluorophenyl)-3-hydroxybutan-2-yl)-2-fluoroacetamide], the Papp A→B at 2 h, 5 μM stood at 8.26 ×10⁻⁶ cm/s.
Consider `CC(=O)NC(Cc1cc(F)cc(F)c1)C(O)CNC1(c2csc(CC(C)(C)C)n2)CC1` (stereo not shown) [Example 23.19, N-(4-(1-(2-neopentylthiazol-4-yl)cyclopropylanimo)1-(3,5-difluorophenyl)-3-hydroxybutan-2-yl)acetamide], for which the Papp A→B at 2 h, 5 μM was determined as 26.7 ×10⁻⁶ cm/s.
On the same count and under the same terms, the value for `CC(=O)NC(Cc1cc(F)cc(F)c1)C(O)CNC1(c2nc(CC(C)(C)C)cs2)CC1` (stereo not shown) [Example 23.36, N-(1-(3,5-difluorophenyl)-3-hydroxy-4-(1-(4-neopentylthiazol-2-yl)cyclopropylamino)butan-2-yl)acetamide] was 11.3 ×10⁻⁶ cm/s.
